Assay results: ChEMBL document CHEMBL5291721, “A preclinical secondary pharmacology resource illuminates target-adverse drug reaction associations of marketed drugs” (Nat Commun, 2023)

Legend:
[1] = target: T1, 5-hydroxytryptamine receptor 1A (Homo sapiens, UniProt P08908); format: functional, cell-based
T1 sequence (P08908 whole entry): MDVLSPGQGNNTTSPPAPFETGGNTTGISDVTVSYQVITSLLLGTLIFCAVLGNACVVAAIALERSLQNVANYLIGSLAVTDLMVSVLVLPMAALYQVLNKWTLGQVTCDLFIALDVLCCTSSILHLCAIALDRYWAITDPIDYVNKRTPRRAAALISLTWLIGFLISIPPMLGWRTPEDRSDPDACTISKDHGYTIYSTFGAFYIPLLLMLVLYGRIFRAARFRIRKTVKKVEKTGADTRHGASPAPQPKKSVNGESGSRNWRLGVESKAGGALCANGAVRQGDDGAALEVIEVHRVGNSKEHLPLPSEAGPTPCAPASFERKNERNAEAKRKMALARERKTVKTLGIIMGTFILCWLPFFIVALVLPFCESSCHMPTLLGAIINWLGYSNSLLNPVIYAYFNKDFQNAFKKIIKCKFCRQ

[2] = target: T2, Muscarinic acetylcholine receptor M1 (Homo sapiens, UniProt P11229); format: functional
T2 sequence (P11229 whole entry): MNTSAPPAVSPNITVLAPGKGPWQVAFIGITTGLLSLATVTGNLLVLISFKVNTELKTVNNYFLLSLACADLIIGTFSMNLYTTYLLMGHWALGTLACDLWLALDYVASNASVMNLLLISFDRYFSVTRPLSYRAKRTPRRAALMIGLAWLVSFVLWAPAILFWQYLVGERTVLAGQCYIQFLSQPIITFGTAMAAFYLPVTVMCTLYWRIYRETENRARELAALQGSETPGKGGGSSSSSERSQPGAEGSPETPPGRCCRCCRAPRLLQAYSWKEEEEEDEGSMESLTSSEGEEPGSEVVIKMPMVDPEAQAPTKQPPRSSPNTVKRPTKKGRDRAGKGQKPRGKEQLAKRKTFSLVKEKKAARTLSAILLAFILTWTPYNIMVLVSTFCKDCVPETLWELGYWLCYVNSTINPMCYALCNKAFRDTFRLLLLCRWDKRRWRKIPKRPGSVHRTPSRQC

[3] = target: Growth hormone secretagogue receptor type 1 (Homo sapiens, UniProt Q92847)
Chain of Growth hormone secretagogue receptor type 1 (Q92847 whole entry): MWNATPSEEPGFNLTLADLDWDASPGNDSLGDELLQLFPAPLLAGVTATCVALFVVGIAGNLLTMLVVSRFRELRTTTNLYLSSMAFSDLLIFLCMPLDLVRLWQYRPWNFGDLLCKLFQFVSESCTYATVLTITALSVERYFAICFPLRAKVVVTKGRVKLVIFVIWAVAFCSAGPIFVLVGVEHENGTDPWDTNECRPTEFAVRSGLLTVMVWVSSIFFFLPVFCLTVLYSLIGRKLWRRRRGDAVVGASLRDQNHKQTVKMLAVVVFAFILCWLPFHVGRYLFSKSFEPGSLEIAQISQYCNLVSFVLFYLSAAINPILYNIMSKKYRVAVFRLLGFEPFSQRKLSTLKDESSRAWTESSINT

[4] = target: 3',5'-cyclic-AMP phosphodiesterase 4D (Homo sapiens, UniProt Q08499); format: functional
Endothelin-1 receptor = target: T3, Endothelin-1 receptor (Homo sapiens, UniProt P25101)
T3 sequence (P25101 whole entry): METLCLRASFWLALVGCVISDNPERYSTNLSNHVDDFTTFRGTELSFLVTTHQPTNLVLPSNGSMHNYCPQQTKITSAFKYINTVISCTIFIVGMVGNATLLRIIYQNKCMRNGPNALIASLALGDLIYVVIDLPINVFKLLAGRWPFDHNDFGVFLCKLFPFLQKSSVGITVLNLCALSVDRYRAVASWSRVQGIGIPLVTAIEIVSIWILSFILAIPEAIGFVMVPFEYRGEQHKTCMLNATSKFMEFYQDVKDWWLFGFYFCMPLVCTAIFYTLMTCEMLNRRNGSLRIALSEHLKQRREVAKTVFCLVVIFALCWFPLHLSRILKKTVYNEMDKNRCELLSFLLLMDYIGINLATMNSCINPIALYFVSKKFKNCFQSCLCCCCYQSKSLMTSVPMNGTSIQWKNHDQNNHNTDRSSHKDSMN

Cannabinoid receptor 1 [5] = target: T4, Cannabinoid receptor 1 (Homo sapiens, UniProt P21554); format: functional, cell-based
T4 sequence (P21554 whole entry): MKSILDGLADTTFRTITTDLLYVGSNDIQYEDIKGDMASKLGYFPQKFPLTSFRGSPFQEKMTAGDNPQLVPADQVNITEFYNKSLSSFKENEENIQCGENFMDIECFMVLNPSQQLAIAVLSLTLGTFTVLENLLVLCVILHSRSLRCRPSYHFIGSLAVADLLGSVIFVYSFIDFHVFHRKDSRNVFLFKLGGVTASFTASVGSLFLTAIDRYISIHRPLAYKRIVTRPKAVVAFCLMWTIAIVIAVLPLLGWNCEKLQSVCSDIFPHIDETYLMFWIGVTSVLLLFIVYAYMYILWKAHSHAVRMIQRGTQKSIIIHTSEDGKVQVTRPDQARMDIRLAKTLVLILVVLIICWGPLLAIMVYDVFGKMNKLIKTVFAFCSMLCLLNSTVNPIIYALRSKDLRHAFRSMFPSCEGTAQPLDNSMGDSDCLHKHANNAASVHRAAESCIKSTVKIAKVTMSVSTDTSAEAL

[6] = target: T5, 5-hydroxytryptamine receptor 2B (Homo sapiens, UniProt P41595); format: functional, cell-based
T5 sequence (P41595 whole entry): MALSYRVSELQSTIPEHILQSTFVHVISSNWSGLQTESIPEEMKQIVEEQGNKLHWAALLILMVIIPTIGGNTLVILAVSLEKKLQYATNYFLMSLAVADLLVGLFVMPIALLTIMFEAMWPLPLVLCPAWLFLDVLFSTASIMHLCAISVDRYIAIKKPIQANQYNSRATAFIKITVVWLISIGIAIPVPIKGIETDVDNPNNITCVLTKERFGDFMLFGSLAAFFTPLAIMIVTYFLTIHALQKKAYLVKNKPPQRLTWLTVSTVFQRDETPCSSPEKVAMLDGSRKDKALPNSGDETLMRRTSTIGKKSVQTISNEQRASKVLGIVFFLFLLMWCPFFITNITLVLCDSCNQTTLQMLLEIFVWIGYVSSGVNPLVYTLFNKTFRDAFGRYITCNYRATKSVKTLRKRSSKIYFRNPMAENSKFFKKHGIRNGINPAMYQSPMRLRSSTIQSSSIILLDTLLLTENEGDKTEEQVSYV

[7] = target: T5, 5-hydroxytryptamine receptor 2B; format: functional, cell-based; remark: listed apart in the source
[8] = target: Glutamate receptor ionotropic, NMDA 1 (Rattus norvegicus, UniProt P35439)
Mu-type opioid receptor = Mu-type opioid receptor (Homo sapiens, UniProt P35372); assay: biochemical; format: functional
Chain of Mu-type opioid receptor (P35372 whole entry): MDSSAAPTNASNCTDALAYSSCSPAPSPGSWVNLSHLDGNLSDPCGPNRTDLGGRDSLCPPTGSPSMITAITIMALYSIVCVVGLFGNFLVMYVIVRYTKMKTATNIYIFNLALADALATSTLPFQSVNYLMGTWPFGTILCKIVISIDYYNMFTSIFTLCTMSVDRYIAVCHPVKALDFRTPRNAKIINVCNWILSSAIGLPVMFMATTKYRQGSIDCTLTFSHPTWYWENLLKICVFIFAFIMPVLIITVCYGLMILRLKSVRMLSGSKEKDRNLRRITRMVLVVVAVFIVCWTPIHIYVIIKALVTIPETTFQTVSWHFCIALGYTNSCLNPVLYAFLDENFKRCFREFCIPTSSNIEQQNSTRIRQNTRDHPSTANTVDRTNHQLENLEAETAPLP

Cannabinoid receptor 1 [9] = target: T4, Cannabinoid receptor 1; format: functional, cell-based; remark: listed apart in the source
[10] = target: Sodium-dependent serotonin transporter (Homo sapiens, UniProt P31645)
Chain of Sodium-dependent serotonin transporter (P31645 whole entry): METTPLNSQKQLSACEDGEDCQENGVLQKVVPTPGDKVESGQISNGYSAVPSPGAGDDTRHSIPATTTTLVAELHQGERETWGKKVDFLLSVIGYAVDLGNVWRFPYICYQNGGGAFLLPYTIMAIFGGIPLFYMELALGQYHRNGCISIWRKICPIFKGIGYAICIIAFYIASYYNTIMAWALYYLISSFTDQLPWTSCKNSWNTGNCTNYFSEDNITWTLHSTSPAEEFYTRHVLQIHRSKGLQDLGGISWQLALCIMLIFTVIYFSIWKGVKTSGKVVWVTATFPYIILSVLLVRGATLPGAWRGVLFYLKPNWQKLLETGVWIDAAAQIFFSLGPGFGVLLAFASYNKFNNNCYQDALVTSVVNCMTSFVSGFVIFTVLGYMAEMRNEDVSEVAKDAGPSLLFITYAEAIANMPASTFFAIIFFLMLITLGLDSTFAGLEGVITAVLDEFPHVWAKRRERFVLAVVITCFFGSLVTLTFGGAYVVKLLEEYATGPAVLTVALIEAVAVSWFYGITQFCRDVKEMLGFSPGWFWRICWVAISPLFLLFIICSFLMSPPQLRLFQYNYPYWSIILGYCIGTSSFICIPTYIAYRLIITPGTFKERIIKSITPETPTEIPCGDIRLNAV

Adenosine receptor A3 = target: T6, Adenosine receptor A3 (Homo sapiens, UniProt P0DMS8)
T6 sequence (P0DMS8 whole entry): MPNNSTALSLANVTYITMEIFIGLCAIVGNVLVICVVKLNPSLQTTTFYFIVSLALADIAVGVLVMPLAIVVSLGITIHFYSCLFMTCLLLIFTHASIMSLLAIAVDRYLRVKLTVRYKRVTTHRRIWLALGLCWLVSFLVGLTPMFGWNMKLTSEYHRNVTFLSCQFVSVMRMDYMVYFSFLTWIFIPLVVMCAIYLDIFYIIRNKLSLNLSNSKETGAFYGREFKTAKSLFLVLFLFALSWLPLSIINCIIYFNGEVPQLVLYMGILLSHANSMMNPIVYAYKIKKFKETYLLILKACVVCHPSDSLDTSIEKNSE

Vasopressin V2 receptor = Vasopressin V2 receptor (Homo sapiens, UniProt P30518)
Chain of Vasopressin V2 receptor (P30518 whole entry): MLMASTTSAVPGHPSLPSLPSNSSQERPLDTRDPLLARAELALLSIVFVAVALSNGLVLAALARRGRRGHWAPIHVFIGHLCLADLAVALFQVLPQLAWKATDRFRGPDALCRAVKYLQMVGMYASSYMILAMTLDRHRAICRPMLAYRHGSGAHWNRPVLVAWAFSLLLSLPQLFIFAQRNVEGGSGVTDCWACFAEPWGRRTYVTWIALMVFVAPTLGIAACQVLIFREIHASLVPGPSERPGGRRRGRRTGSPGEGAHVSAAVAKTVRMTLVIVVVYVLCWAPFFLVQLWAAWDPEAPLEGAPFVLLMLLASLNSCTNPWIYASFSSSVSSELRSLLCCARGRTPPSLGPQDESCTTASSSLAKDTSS

[11] = target: Voltage-dependent L-type calcium channel subunit alpha-1C (Rattus norvegicus, UniProt P22002); format: functional
Chain of Voltage-dependent L-type calcium channel subunit alpha-1C (P22002 whole entry): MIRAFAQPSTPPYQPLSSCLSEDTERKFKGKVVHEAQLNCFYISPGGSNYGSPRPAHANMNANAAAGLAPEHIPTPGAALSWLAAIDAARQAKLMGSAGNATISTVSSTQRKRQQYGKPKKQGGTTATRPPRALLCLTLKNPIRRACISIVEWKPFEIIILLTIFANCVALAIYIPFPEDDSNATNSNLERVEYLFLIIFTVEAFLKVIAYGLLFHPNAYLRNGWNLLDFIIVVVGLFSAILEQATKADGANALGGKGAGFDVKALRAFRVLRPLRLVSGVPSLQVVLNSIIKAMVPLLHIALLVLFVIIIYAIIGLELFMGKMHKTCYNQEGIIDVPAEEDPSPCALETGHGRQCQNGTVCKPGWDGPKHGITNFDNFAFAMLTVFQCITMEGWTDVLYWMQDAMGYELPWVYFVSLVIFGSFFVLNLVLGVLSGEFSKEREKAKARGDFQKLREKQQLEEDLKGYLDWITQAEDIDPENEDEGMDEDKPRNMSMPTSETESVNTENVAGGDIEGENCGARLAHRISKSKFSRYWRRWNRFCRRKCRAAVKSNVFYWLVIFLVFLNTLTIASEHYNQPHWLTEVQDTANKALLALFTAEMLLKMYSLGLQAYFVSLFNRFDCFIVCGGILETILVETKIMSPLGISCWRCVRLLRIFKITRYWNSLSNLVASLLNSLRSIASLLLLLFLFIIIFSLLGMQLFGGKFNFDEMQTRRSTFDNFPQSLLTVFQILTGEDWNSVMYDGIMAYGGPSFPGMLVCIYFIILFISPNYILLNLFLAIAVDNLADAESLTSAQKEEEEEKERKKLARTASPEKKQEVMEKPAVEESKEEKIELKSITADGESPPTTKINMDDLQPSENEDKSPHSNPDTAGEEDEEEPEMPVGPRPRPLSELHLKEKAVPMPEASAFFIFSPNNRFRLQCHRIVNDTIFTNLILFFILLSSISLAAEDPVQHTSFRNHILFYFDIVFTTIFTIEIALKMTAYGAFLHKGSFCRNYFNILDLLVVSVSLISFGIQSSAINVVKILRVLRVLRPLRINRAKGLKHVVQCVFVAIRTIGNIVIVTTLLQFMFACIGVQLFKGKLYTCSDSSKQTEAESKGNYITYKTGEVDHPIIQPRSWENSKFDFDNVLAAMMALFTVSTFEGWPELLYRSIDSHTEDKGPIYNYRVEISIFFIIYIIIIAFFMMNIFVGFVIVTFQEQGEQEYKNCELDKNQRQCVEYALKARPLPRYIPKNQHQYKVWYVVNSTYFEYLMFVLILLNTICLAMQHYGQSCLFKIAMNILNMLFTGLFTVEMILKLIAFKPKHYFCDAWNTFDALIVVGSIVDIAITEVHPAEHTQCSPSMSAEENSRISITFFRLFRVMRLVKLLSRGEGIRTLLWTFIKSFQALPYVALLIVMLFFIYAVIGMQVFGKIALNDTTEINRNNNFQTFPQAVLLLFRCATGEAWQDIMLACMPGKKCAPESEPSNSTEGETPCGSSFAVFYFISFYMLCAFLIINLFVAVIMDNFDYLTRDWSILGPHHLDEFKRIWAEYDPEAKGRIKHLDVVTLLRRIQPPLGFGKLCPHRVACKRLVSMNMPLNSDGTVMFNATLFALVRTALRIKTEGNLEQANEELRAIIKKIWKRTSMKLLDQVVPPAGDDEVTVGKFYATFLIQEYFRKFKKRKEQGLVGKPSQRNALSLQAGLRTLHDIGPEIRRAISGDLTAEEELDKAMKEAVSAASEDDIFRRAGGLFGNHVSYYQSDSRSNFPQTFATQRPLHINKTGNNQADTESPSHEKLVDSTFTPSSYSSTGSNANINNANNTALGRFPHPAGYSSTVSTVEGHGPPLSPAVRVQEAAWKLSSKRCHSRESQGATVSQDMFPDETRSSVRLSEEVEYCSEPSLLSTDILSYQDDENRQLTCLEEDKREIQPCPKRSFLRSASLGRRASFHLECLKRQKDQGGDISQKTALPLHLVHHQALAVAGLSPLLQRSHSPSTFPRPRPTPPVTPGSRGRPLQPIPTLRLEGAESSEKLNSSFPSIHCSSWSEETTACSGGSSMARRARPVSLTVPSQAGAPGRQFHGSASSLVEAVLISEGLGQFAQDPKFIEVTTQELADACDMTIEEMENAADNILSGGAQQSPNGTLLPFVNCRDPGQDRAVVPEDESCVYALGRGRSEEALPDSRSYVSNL

[12] = target: T7, Equilibrative nucleoside transporter 1 (Homo sapiens, UniProt Q99808)
T7 sequence (Q99808 whole entry): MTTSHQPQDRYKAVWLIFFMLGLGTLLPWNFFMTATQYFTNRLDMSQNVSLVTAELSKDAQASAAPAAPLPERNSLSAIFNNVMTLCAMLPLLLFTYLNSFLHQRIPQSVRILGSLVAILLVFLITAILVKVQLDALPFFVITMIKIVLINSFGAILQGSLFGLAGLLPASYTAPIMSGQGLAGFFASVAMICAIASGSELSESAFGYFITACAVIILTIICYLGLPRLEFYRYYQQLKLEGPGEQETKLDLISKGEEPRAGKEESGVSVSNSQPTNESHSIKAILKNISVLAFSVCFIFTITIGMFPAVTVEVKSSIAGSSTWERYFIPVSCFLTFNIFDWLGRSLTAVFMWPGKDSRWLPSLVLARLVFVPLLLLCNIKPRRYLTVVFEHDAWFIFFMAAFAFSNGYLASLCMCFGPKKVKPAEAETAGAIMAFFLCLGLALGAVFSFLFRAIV

[13] = target: T1, 5-hydroxytryptamine receptor 1A; format: functional, cell-based; remark: listed apart in the source
Note: assay procedure not described here.

Row | SMILES | AC50 [1] | AC50 [2] | AC50 [3] | AC50 [4] | AC50 (Endothelin-1 receptor) | AC50 (Cannabinoid receptor 1 [5]) | AC50 [6] | AC50 [7] | AC50 [8] | AC50 (Mu-type opioid receptor) | AC50 (Cannabinoid receptor 1 [9]) | AC50 [10] | AC50 (Adenosine receptor A3) | AC50 (Vasopressin V2 receptor) | AC50 [11] | AC50 [12] | AC50 [13]
1 | Nc1ncnc2c1ncn2[C@@H]1O[C@H](COP(=O)(O)O)[C@@H](O)[C@H]1O [ADENOSINE PHOSPHATE] | > 30 µM | > 30 µM | > 30 µM | 14 µM | > 30 µM | > 30 µM | > 30 µM | > 30 µM | > 30 µM | > 30 µM | > 30 µM | > 30 µM | > 30 µM | > 30 µM | – | – | –
2 | CCCC(CCC)C(=O)O[C@H]1C[C@H]2CC[C@@H](C1)[N+]2(C)C [ANISOTROPINE] | > 30 µM | 0.17 µM | > 30 µM | > 30 µM | > 30 µM | > 30 µM | > 30 µM | > 30 µM | > 30 µM | > 30 µM | > 30 µM | > 30 µM | > 30 µM | > 30 µM | – | – | –
3 | CCOC(=O)[C@H](CCc1ccccc1)N[C@H]1CCCN2CCC[C@@H](C(=O)O)N2C1=O [CILAZAPRIL] | > 30 µM | > 30 µM | > 30 µM | > 30 µM | > 30 µM | > 30 µM | > 30 µM | > 30 µM | > 30 µM | > 30 µM | > 30 µM | > 30 µM | > 30 µM | > 30 µM | > 30 µM | > 30 µM | –
4 | CCOc1cc(N)c([N+](=O)[O-])cc1C(=O)NC1CCN(CC2CC=CCC2)CC1 (stereo unspecified) [CINITAPRIDE] | > 30 µM | 14 µM | > 30 µM | > 30 µM | > 30 µM | > 30 µM | > 30 µM | 0.19 µM | > 30 µM | > 30 µM | > 30 µM | 14 µM | > 30 µM | > 30 µM | > 30 µM | > 30 µM | –
5 | CCCCCCCCCCCC[N+](C)(C)CCOc1ccccc1 [DOMIPHEN] | 22 µM | 8.9 µM | 5.7 µM | 12 µM | > 30 µM | 17 µM | > 30 µM | 11 µM | > 30 µM | > 30 µM | > 30 µM | 1.7 µM | 10 µM | 7.3 µM | > 30 µM | > 30 µM | –
6 | COc1ccc(C(=O)NCc2ccc(OCCN(C)C)cc2)cc1OC [ITOPRIDE] | > 30 µM | > 30 µM | > 30 µM | > 30 µM | > 30 µM | > 30 µM | > 30 µM | > 30 µM | > 30 µM | > 30 µM | > 30 µM | > 30 µM | > 30 µM | > 30 µM | > 30 µM | > 30 µM | –
7 | CCCCCCC(C)(C)c1cc(O)c2c(c1)OC(C)(C)C1CCC(=O)CC21 (stereo unspecified) [NABILONE] | > 30 µM | > 30 µM | > 30 µM | > 30 µM | > 30 µM | – | > 30 µM | > 30 µM | > 30 µM | > 30 µM | 0.168 µM | > 30 µM | 9.1 µM | > 30 µM | – | > 30 µM | > 30 µM
8 | O=C(O)CCCc1ccccc1 [PHENYLBUTANOIC ACID] | > 30 µM | > 30 µM | > 10 µM | > 30 µM | > 30 µM | – | > 30 µM | > 30 µM | > 30 µM | > 30 µM | – | > 10 µM | > 10 µM | > 30 µM | > 30 µM | > 30 µM | > 10 µM
9 | Cc1nc2ccc(CN(C)c3ccc(C(=O)N[C@@H](CCC(=O)O)C(=O)O)s3)cc2c(=O)[nH]1 [RALTITREXED] | > 30 µM | > 30 µM | > 30 µM | > 30 µM | > 30 µM | – | > 30 µM | > 30 µM | > 30 µM | > 30 µM | – | > 30 µM | > 30 µM | > 30 µM | > 30 µM | > 30 µM | –
10 | O=C1NCCN1CCN1CCC(c2cn(-c3ccc(F)cc3)c3ccc(Cl)cc23)CC1 [SERTINDOLE] | – | 5 µM | 28 µM | 20 µM | > 30 µM | 20 µM | > 30 µM | 0.6 µM | > 30 µM | > 30 µM | > 30 µM | 3.4 µM | 16 µM | 27 µM | > 30 µM | > 30 µM | –
11 | COc1ccc(C(=O)N2CCN(c3ccc4c(c3)CCC(=O)N4)CC2)cc1OC [VESNARINONE] | > 30 µM | > 30 µM | > 30 µM | > 30 µM | > 30 µM | > 30 µM | > 30 µM | > 30 µM | > 30 µM | > 30 µM | > 30 µM | 21 µM | > 30 µM | > 30 µM | – | – | –
12 | Cc1ccc(-c2nc3ccc(C)cn3c2CC(=O)N(C)C)cc1 [ZOLPIDEM] | > 30 µM | – | > 30 µM | > 30 µM | > 30 µM | > 30 µM | > 30 µM | 29 µM | > 30 µM | > 30 µM | > 30 µM | > 30 µM | > 30 µM | > 30 µM | > 30 µM | > 30 µM | > 10 µM
